As a reminder, the Ki is a dissociation constant, usually derived from enzyme kinetics or from competition with a known ligand. A low value points to higher affinity.

In this test the target is cAMP and cAMP-inhibited cGMP 3',5'-cyclic phosphodiesterase 10A (Homo sapiens, UniProt Q9Y233). The test is described as follows: Inhibition of human PDE10A2 transfected in human AD293 cells cytosolic fraction using cAMP as substrate by fluorescence polarization assay. Background: In fluorescence polarisation assays a small probe gives low polarisation when free and higher when bound to something large.
cAMP and cAMP-inhibited cGMP 3',5'-cyclic phosphodiesterase 10A, sequence (Q9Y233 whole entry): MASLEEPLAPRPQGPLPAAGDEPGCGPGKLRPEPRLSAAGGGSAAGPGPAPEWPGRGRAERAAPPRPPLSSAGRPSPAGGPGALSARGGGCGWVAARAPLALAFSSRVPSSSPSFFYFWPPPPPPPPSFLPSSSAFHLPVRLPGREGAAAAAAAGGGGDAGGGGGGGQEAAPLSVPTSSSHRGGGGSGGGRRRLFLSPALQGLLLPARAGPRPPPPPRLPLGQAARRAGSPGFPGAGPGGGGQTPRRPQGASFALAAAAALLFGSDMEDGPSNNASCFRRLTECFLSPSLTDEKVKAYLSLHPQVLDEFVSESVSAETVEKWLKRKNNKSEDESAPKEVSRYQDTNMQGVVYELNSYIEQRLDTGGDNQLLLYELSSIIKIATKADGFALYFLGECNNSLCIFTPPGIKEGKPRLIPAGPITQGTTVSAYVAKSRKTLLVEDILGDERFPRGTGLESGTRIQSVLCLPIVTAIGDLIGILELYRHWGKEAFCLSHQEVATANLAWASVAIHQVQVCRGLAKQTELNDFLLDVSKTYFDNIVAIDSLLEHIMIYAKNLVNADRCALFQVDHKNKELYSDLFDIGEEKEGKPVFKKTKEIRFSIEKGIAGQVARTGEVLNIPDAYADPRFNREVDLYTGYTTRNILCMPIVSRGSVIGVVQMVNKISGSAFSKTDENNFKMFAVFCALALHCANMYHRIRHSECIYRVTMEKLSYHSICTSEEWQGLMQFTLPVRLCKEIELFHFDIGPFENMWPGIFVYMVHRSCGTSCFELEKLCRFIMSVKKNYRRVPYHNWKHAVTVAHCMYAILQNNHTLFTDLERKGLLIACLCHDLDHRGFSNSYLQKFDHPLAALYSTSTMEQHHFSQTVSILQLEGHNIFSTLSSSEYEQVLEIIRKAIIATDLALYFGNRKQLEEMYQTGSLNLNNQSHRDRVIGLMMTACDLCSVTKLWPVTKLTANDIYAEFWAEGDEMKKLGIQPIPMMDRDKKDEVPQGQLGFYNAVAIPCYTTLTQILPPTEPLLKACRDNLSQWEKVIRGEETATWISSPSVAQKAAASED

On to `Cc1cnc(OC[C@H]2C[C@@H]2c2ccccn2)cc1NCc1cnn(C)c1`, for which the inhibitory constant (Ki) came out at 7.8 nM. This lies in the single-digit nanomolar range.

Values taken from BindingDB's records for doi:10.1021/acs.jmedchem.2c01521 (Merck, 2023).
